Experimental findings from ChEMBL document CHEMBL1149241 (J Med Chem, 2004) are described below.

SMILES strings stand for the structures.

Chain of Beta-secretase 1 (P56817 whole entry): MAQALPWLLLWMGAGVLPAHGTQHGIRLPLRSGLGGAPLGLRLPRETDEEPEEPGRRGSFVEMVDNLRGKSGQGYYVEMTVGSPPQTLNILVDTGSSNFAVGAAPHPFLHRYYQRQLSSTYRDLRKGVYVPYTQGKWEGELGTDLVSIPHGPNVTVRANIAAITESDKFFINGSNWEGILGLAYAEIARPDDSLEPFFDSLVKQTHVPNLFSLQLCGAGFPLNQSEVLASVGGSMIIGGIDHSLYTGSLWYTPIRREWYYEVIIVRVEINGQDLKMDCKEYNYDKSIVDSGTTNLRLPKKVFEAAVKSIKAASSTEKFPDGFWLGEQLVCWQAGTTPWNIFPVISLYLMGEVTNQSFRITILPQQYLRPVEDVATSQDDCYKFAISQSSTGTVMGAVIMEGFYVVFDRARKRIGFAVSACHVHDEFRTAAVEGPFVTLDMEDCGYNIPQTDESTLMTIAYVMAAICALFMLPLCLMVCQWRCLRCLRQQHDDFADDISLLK

The assay concerns the target Beta-secretase 1 (Homo sapiens, UniProt P56817). Kind of assay: Inhibition of BACE1 by electrochemiluminescence assay.
On to `C[C@@H](NC(=O)c1cc(OCC(=O)NCCCCCN)cc(OS(=O)(=O)Cc2ccccc2)c1)c1ccccc1`, for which half-maximal inhibition (IC50) required 3.4 µM.

In turn, `C[C@@H](NC(=O)c1cc(OCC(=O)NCCCCCN)cc(-c2ccccc2C#N)c1)c1ccccc1` displayed an IC50 of 21 µM.

Take `CC(NC(=O)c1cc(OCC(=O)NCCCCCN)cc(OS(=O)(=O)Cc2ccccc2)c1)c1ccccc1` (single isomer, unassigned): the half-maximal inhibitory concentration (IC50) is over 100 µM.

In general, IC50 refers to the concentration that gives 50% inhibition. Low values mean inhibition by little substance, high ones a need for much substance.
